From patent US20230203098A1, “HUMAN TRANSFERRIN RECEPTOR BINDING PEPTIDE” (priority 2020, published 2023)
pKd: −log10 of the molar value.

Target: transferrin receptor (hTfR) (Homo sapiens, UniProt P02786)
Assay: Intermolecular interaction evaluation test between transferrin receptor (hTfR) and peptide by surface plasmon resonance (SPR)
Format: binding
Conditions: surface plasmon resonance, hTfR; read-out: KD value for hTfR by SPR (class symbol)
How it was run: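 Receptor was Ni-captured and EDC/NHS-fixed on an NTA chip; running buffer HEPES pH 8.0 with NaCl, Tween 20, BSA and 1.0% DMSO.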

Chain of transferrin receptor (hTfR) (P02786 whole entry): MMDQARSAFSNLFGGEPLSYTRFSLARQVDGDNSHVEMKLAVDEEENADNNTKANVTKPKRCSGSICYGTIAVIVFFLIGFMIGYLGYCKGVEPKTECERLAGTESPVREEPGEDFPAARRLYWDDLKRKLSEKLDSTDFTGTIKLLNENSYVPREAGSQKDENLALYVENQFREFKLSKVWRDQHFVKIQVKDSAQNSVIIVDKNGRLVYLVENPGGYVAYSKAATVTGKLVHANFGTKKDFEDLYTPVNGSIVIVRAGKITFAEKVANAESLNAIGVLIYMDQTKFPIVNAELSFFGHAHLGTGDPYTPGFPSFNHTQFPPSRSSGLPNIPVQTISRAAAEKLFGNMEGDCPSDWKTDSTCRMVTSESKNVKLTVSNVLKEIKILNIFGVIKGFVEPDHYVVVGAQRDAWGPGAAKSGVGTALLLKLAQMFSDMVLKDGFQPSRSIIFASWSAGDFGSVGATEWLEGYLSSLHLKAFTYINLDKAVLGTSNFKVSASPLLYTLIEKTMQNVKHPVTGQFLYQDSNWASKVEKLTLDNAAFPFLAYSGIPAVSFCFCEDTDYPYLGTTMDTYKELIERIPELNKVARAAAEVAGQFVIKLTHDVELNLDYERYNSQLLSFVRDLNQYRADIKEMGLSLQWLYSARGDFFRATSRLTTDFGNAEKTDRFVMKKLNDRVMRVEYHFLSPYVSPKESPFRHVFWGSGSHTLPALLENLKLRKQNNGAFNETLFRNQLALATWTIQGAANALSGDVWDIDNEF

SMILES	pKd
CC[C@H](C)[C@@H]1NC(=O)[C@H](Cc2ccc(OC)cc2)NC(=O)[C@H](Cc2ccc(O)cc2)NC(=O)[C@H](CC(N)=O)NC(=O)[C@H](Cc2c[nH]c3ccccc23)N(C)C(=O)[C@H](C(C)C)NC(=O)[C@H](Cc2cccc(Cl)c2)N(C)C(=O)[C@H](C(C)C)NC(=O)[C@H](C)NC(=O)CSC[C@@H](C(N)=O)NC(=O)[C@H](Cc2ccc(O)cc2)N(C)C(=O)[C@H](CCC(=O)N[C@H](CCC(=O)O)C(=O)O)NC(=O)[C@@H](CCCNC(=N)N)NC(=O)[C@H](CCCNC(=N)N)NC(=O)[C@H]([C@@H](C)CC)NC1=O [compound 391]	7.00 to 9.00
CC[C@H](C)[C@@H]1NC(=O)[C@H](Cc2ccc(OC)cc2)NC(=O)[C@H](Cc2ccc(O)cc2)NC(=O)[C@H](CC(N)=O)NC(=O)[C@H](Cc2c[nH]c3ccccc23)N(C)C(=O)[C@H](C(C)C)NC(=O)[C@H](Cc2cccc(Cl)c2)N(C)C(=O)[C@H](C(C)C)NC(=O)[C@H](C)NC(=O)CSC[C@@H](C(N)=O)NC(=O)[C@H](Cc2ccc(O)cc2)N(C)C(=O)[C@H](Cc2ccc(Cl)cc2)NC(=O)[C@@H](CCCNC(=N)N)NC(=O)[C@H](CCCNC(=N)N)NC(=O)[C@H]([C@@H](C)CC)NC1=O [compound 392]	7.00 to 9.00
CC[C@H](C)[C@@H]1NC(=O)[C@H](Cc2ccc(OC)cc2)NC(=O)[C@H](Cc2ccc(O)cc2)NC(=O)[C@H](CC(N)=O)NC(=O)[C@H](Cc2c[nH]c3ccccc23)N(C)C(=O)[C@H](C(C)C)NC(=O)[C@H](Cc2cccc(Cl)c2)N(C)C(=O)[C@H](C(C)C)NC(=O)[C@H](C)NC(=O)CSC[C@@H](C(N)=O)NC(=O)[C@H](Cc2ccc(O)cc2)N(C)C(=O)[C@H](Cc2cccc(Cl)c2)NC(=O)[C@@H](CCCNC(=N)N)NC(=O)[C@H](CCCNC(=N)N)NC(=O)[C@H]([C@@H](C)CC)NC1=O [compound 393]	7.00 to 9.00
CC[C@H](C)[C@@H]1NC(=O)[C@H](Cc2ccc(OC)cc2)NC(=O)[C@H](Cc2ccc(O)cc2)NC(=O)[C@H](CC(N)=O)NC(=O)[C@H](Cc2c[nH]c3ccccc23)N(C)C(=O)[C@H](C(C)C)NC(=O)[C@H](Cc2cccc(Cl)c2)N(C)C(=O)[C@H](C(C)C)NC(=O)[C@H](C)NC(=O)CSC[C@@H](C(N)=O)NC(=O)[C@H](Cc2ccc(O)cc2)N(C)C(=O)[C@H](Cc2cccc(OC)c2)NC(=O)[C@@H](CCCNC(=N)N)NC(=O)[C@H](CCCNC(=N)N)NC(=O)[C@H]([C@@H](C)CC)NC1=O [compound 394]	7.00 to 9.00
CC[C@H](C)[C@@H]1NC(=O)[C@H](Cc2ccc(OC)cc2)NC(=O)[C@H](Cc2ccc(O)cc2)NC(=O)[C@H](CC(N)=O)NC(=O)[C@H](Cc2c[nH]c3ccccc23)N(C)C(=O)[C@H](C(C)C)NC(=O)[C@H](Cc2cccc(Cl)c2)N(C)C(=O)[C@H](C(C)C)NC(=O)[C@H](C)NC(=O)CSC[C@H](C(N)=O)NC(=O)[C@H](Cc2ccc(O)cc2)N(C)C(=O)[C@H](Cc2ccccc2)NC(=O)[C@@H](CCCNC(=N)N)NC(=O)[C@H](CCCNC(=N)N)NC(=O)[C@H]([C@@H](C)CC)NC1=O [compound 396]	7.00 to 9.00
CC[C@H](C)[C@@H]1NC(=O)[C@H](Cc2ccc(OC)cc2)NC(=O)[C@H](Cc2ccc(O)cc2)NC(=O)[C@H](CC(N)=O)NC(=O)[C@H](Cc2c[nH]c3ccccc23)N(C)C(=O)[C@H](C(C)C)NC(=O)[C@H](Cc2cccc(Cl)c2)N(C)C(=O)[C@H](C(C)C)NC(=O)[C@H](C)NC(=O)CSC[C@@H](C(N)=O)NC(=O)[C@H](Cc2ccc(O)cc2)N(C)C(=O)[C@H](Cc2ccccc2)NC(=O)[C@@H](CCCNC(=N)N)NC(=O)[C@H](CCCNC(=N)N)NC(=O)[C@H]([C@@H](C)CC)NC1=O [compound 397]	7.00 to 9.00
